Experimental findings from ChEMBL document CHEMBL4411300 (Eur J Med Chem, 2019) are described below.

A short description of series [1]: Nephrotoxicity in Balb/c mouse infected with Trypanosoma cruzi MHOM/Pe/2011/Arequipa DTU 5 trypomastigotes assessed as decrease in serum urea level at 20 mg/kg, po once daily for 5 consecutive days starting from day 10 post infection measured on day 127 post infection relative to control. It counts as toxicity, organism-based. On the set-up: scale not given: the % may be the effect or the level left. As to conditions: in vivo.

Series [2] is described as follows: Hepatotoxicity in Balb/c mouse infected with Trypanosoma cruzi MHOM/Pe/2011/Arequipa DTU 5 trypomastigotes assessed as increase in ratio of serum AST to GOT level at 20 mg/kg, po once daily for 5 consecutive days starting from day 75 post infection measured on day 81 post infection by biochemical analysis relative to control. It counts as toxicity, organism-based. As to conditions: in vivo.

Series [3] relates to Trypanosoma cruzi. Put plainly: Antitrypanosomal activity against Trypanosoma cruzi MHOM/Pe/2011/Arequipa DTU 5 trypomastigotes infected in Balb/c mouse assessed as reduction in parasitaemia level at 20 mg/kg, po once daily for 5 consecutive days starting from day 10 post infection measured on day 40 post infection by Neubauer chamber method. It counts as functional, organism-based.

The test system of series [4] is Trypanosoma cruzi. Put plainly: Antitrypanosomal activity against Trypanosoma cruzi MHOM/Pe/2011/Arequipa DTU 5 trypomastigotes infected in Balb/c mouse assessed as parasite-free spleen at 20 mg/kg, po pretreated once daily for 5 consecutive days starting from day 75 post infection followed by cyclophosphamide-induced immunosuppression on day 100 post infection every 4 days for a maximum of 3 doses measured on day 127 post infection by PCR method. It counts as functional, organism-based.

A short description of series [5]: Hepatotoxicity in Balb/c mouse infected with Trypanosoma cruzi MHOM/Pe/2011/Arequipa DTU 5 trypomastigotes assessed as decrease in alkaline phosphatase level at 20 mg/kg, po once daily for 5 consecutive days starting from day 10 post infection measured on day 127 post infection by biochemical analysis relative to control. It counts as toxicity, organism-based. More on the design: scale not given: the % may be the effect or the level left. The following applies: in vivo.

Series [6] can be described thus: Cardiotoxicity in Balb/c mouse infected with Trypanosoma cruzi MHOM/Pe/2011/Arequipa DTU 5 trypomastigotes assessed as decrease in serum LDH level at 20 mg/kg, po once daily for 5 consecutive days starting from day 10 post infection measured on day 16 post infection by biochemical analysis relative to control. It counts as toxicity, organism-based. On the set-up: scale not given: the % may be the effect or the level left. As to conditions: in vivo.

Series [7] can be described thus: Hepatotoxicity in Balb/c mouse infected with Trypanosoma cruzi MHOM/Pe/2011/Arequipa DTU 5 trypomastigotes assessed as change in total bilirubin level at 20 mg/kg, po once daily for 5 consecutive days starting from day 75 post infection measured on day 81 post infection (reference value: 0.25 mg/dl). It counts as toxicity, organism-based. The following applies: in vivo.

The nature of series [8]: Hepatotoxicity in Balb/c mouse infected with Trypanosoma cruzi MHOM/Pe/2011/Arequipa DTU 5 trypomastigotes assessed as change in alkaline phosphatase level at 20 mg/kg, po once daily for 5 consecutive days starting from day 75 post infection measured on day 81 post infection (reference value: 167 U/L). It counts as toxicity, organism-based. The following applies: in vivo.

Series [9] deals with Trypanosoma cruzi. Kind of series: Antitrypanosomal activity against Trypanosoma cruzi MHOM/Pe/2011/Arequipa DTU 5 trypomastigotes infected in Balb/c mouse assessed as parasite-free oesophagus at 20 mg/kg, po pretreated once daily for 5 consecutive days starting from day 75 post infection followed by cyclophosphamide-induced immunosuppression on day 100 post infection every 4 days for a maximum of 3 doses measured on day 127 post infection by PCR method. It counts as functional, organism-based.

Series [10] in a line: Hepatotoxicity in Balb/c mouse infected with Trypanosoma cruzi MHOM/Pe/2011/Arequipa DTU 5 trypomastigotes assessed as decrease in serum ALT to GPT level at 20 mg/kg, po once daily for 5 consecutive days starting from day 10 post infection measured on day 16 post infection relative to control. The following applies: in vivo. More on the design: scale not given: the % may be the effect or the level left. It counts as toxicity, organism-based.

In series [11] the test system is Trypanosoma cruzi. Kind of series: Antitrypanosomal activity against Trypanosoma cruzi MHOM/Pe/2011/Arequipa DTU 5 trypomastigotes infected in Balb/c mouse assessed as parasite-free muscle at 20 mg/kg, po pretreated once daily for 5 consecutive days starting from day 75 post infection followed by cyclophosphamide-induced immunosuppression on day 100 post infection every 4 days for a maximum of 3 doses measured on day 127 post infection by PCR method. It counts as functional, organism-based.

The test system of series [12] is Trypanosoma cruzi. Put plainly: Antitrypanosomal activity against Trypanosoma cruzi MHOM/Pe/2011/Arequipa DTU 5 trypomastigotes infected in Balb/c mouse assessed as parasite-free heart at 20 mg/kg, po pretreated once daily for 5 consecutive days starting from day 75 post infection followed by cyclophosphamide-induced immunosuppression on day 100 post infection every 4 days for a maximum of 3 doses measured on day 127 post infection by PCR method. It counts as functional, organism-based.

A short description of series [13]: Cardiotoxicity in Balb/c mouse infected with Trypanosoma cruzi MHOM/Pe/2011/Arequipa DTU 5 trypomastigotes assessed as decrease in ratio of creatine kinase in muscle to brain at 20 mg/kg, po once daily for 5 consecutive days starting from day 10 post infection measured on day 16 post infection by biochemical analysis relative to control. It counts as toxicity, organism-based. More on the design: scale not given: the % may be the effect or the level left. As to conditions: in vivo.

Series [14] deals with Trypanosoma cruzi. Kind of series: Antitrypanosomal activity against Trypanosoma cruzi MHOM/Pe/2011/Arequipa DTU 5 trypomastigotes infected in Balb/c mouse assessed as parasite-free stomach at 20 mg/kg, po pretreated once daily for 5 consecutive days starting from day 75 post infection followed by cyclophosphamide-induced immunosuppression on day 100 post infection every 4 days for a maximum of 3 doses measured on day 127 post infection by PCR method. It counts as functional, organism-based.

Series [15] can be described thus: Hepatotoxicity in Balb/c mouse infected with Trypanosoma cruzi MHOM/Pe/2011/Arequipa DTU 5 trypomastigotes assessed as change in total bilirubin level at 20 mg/kg, po once daily for 5 consecutive days starting from day 75 post infection measured on day 127 post infection (reference value: 0.2 mg/dl). It counts as toxicity, organism-based. The following applies: in vivo.

A short description of series [16]: Hepatotoxicity in Balb/c mouse infected with Trypanosoma cruzi MHOM/Pe/2011/Arequipa DTU 5 trypomastigotes assessed as increase in ratio of serum ALT to GPT level at 20 mg/kg, po once daily for 5 consecutive days starting from day 75 post infection measured on day 127 post infection relative to control. It counts as toxicity, organism-based. As to conditions: in vivo.

The nature of series [17]: Hepatotoxicity in Balb/c mouse infected with Trypanosoma cruzi MHOM/Pe/2011/Arequipa DTU 5 trypomastigotes assessed as decrease in ratio of serum AST to GOT level at 20 mg/kg, po once daily for 5 consecutive days starting from day 10 post infection measured on day 16 post infection relative to control. It counts as toxicity, organism-based. On the set-up: scale not given: the % may be the effect or the level left. As to conditions: in vivo.

Series [18] in a line: Cardiotoxicity in Balb/c mouse infected with Trypanosoma cruzi MHOM/Pe/2011/Arequipa DTU 5 trypomastigotes assessed as change in ratio of creatine kinase in muscle to brain at 20 mg/kg, po once daily for 5 consecutive days starting from day 75 post infection measured on day 81 post infection (reference value: 751 U/L). It counts as toxicity, organism-based. As to conditions: in vivo.

Series [19] is described as follows: Hepatotoxicity in Balb/c mouse infected with Trypanosoma cruzi MHOM/Pe/2011/Arequipa DTU 5 trypomastigotes assessed as increase in ratio of serum ALT to GPT level at 20 mg/kg, po once daily for 5 consecutive days starting from day 10 post infection measured on day 127 post infection by biochemical analysis relative to control. As to conditions: in vivo. It counts as toxicity, organism-based.

Series [20] can be described thus: Cardiotoxicity in Balb/c mouse infected with Trypanosoma cruzi MHOM/Pe/2011/Arequipa DTU 5 trypomastigotes assessed as change in serum LDH level at 20 mg/kg, po once daily for 5 consecutive days starting from day 75 post infection measured on day 127 post infection (reference value: 6679 U/L). It counts as toxicity, organism-based. The following applies: in vivo.

A short description of series [21]: Nephrotoxicity in Balb/c mouse infected with Trypanosoma cruzi MHOM/Pe/2011/Arequipa DTU 5 trypomastigotes assessed as serum uric acid level at 20 mg/kg, po once daily for 5 consecutive days starting from day 75 post infection measured on day 127 post infection (reference value: 4.8 mg/dl). It counts as toxicity, organism-based. The following applies: in vivo.

Each structure is given as a SMILES string. Active and inactive are the calls of the source. The calls are words filed in the database; no cut-off is given here.

Regarding `O=C(Cn1ccnc1[N+](=O)[O-])NCc1ccccc1` [BENZNIDAZOLE], the values for the Activity result in series [1] and in series [2] were “<= 10%” and “<= 20%”, respectively.
Take `Cl.Cl.Cl.NCCN(CCN)CCNCc1ccc2c(c1)Cc1ccccc1-2`: the outcome in series [3], in series [4], in series [9], in [11], in series [12] and in [14] was Active. Moreover, the Activity entry was “<= 10%” in [5]; “<= 10%” in [6]; 0.25 mg/dL in series [7]; 167 U/L in series [8]; “<= 10%” in [10]; “<= 10%” in series [13]. Moreover, the Activity in [15] was 0.2 mg/dL.
As to `Cl.Cl.Cl.Cl.Cl.Cl.c1ccc2nc(CNCCN(CCNCc3ccc4ccccc4n3)CCNCc3ccc4ccccc4n3)ccc2c1`, the Activity result in series [16] was “<= 10%”; in series [17], “<= 10%”; in [18], 751 U/L; in [19] it was “<= 30%”; in series [20], 6679 U/L; in series [21] it was 4.8 mg/dL.
